The record followed here is the Bradley open melting point set (2014).

Structures are written as SMILES. Where “and” joins values, the source holds several entries; their conditions need not be identical. Equal entries are not always repeated. Structures can show the parent of a compound that is named as a salt.

Turning to `N#Cc1ccc(Oc2ccccc2)cc1` [4-phenoxybenzonitrile], the melting point (commonly the temperature of the solid-liquid transition) was found to be 44 °C.
Take `CC(C)(C)OC(=O)NCC(=O)O` [boc-glycine]: the melting point amounted to 88.5 °C.
The result for `Cc1cccc2c1Cc1ccccc1-2` [1-methylfluorene] reads 85 °C.
`CC1=C(/C=C/C(C)=C/C=C/C(C)=C/C=C/C=C(C)/C=C/C=C(C)/C=C/C2=C(C)CCCC2(C)C)C(C)(C)CCC1` [B-carotene]: the melting point was 183 °C (2×) and 180 °C.
The molecule `N#Cc1ccccc1N1CCCCC1` [2-(1-piperidinyl)benzonitrile] came in with a melting point of 43 °C.
`CCc1ccc(O)cc1` [4-ethylphenol] displayed a melting point of 47 °C.
Take `O=C(S)c1ccccc1` [thiobenzoic acid]: the melting point turned out to be 17 °C.
On to `O=C1OC(=O)C23Cc4ccccc4CC12Cc1cc2c(cc1C3)CC2` (stereo not given), for which the melting point stood at 250 °C.
The molecule `C/C=C/c1ccccc1` [trans-1-phenyl-1-propene] gave a melting point of -29 °C.
`O=C(NC1CCN(CCc2c[nH]c3ccccc23)CC1)c1ccccc1` [indoramin] gave a melting point of 208 °C.
`NC(Cc1ccc(N(CCCl)CCCl)cc1)C(=O)O` (stereo not given) [Melphalan] showed a melting point of 182 °C.
With `CC1=C(C#N)c2ccccc2C1` [2-methyl-1H-indene-3-carbonitrile], the melting point turned out to be 70 °C.
For the molecule `CC(=O)OC1(C(C)=O)CCC2(C)C(CCC3C4CCCC4(C)CCC32)C1` (stereo not given) [3-acetylandrostan-3-yl acetate], the melting point came out at 165 °C.
As for `O=C(O)c1ccc(F)cc1O` [4-fluorosalicylic acid], the melting point stood at 188 °C.
To `CC(=O)NC1C(OC(C)=O)OC(COC(C)=O)C(OC(C)=O)C1OC(C)=O` (stereo not given) belongs 140 °C; to `O=C(O)Cn1cncn1` [1h-1,2,4-triazole-1-acetic acid], 203 °C; to `C[C@]12CCC(=O)C=C1CC[C@@H]1[C@@H]2[C@@H](O)C[C@@]2(C)[C@H]1CC[C@]2(O)C(=O)CO` [hydrocortisone], 221 °C.
To `CC(=O)Oc1ccc2c3c1O[C@H]1[C@@H](OC(C)=O)C=C[C@H]4[C@@H](C2)N(C)CC[C@@]341` [heroin] belongs 173 °C; to `Nc1ccc(N)c2c1C(=O)c1c(N)ccc(N)c1C2=O` [1,4,5,8-Tetraamino-9,10-anthraquinone], 332 °C; to `N#Cc1cc(I)c(O)c(I)c1` [3,5-diiodo-4-hydroxybenzonitrile], 204 °C.
Take `CC(=O)c1ccc2ccccc2c1` [2-Acetylnaphthalene]: the melting point is 55 °C.
`O=C[C@H](O)[C@H](O)[C@H](O)CO` [D-Ribose] showed a melting point of 82 °C.
`BrCCCCBr` [1,4-dibromobutane] showed a melting point of -17 °C.
With `CC(C(=O)O)c1ccccc1` (stereo not given) [2-phenylpropionic acid], the melting point is -5 °C.
As to `Oc1ccc2cc(O)ccc2c1` [2,6-dihydroxynaphthalene], the melting point stood at 224 °C.
In turn, `COc1cc(O)cc(OC)c1OC` [3,4,5-trimethoxyphenol] gave a melting point of 146 °C.
On to `N#Cc1ccccc1C#N` [phthalonitrile], for which the melting point stood at 140 °C.
On to `CN(C)c1ccc(/C=C/C=O)cc1` [4-dimethylamino cinnamaldehyde], for which the melting point amounted to 136 °C.
Molecule `O=[N+]([O-])c1ccc(Br)cc1` [1-bromo-4-nitrobenzene] came in with a melting point of 126 °C.
Consider `CC(O[S+]([O-])C(C)(C)C)C(O)(c1ccccc1)c1ccccc1` (stereo not given), for which the melting point was 136 °C.
With `O=C(Oc1ccccc1)Oc1ccccc1` [diphenyl carbonate], the melting point was determined as 79 °C.
`Nc1ccn([C@@H]2O[C@H](CO)[C@@H](O)[C@@H]2O)c(=O)n1` [Cytarabine] displayed a melting point of 212 °C.
Molecule `N#Cc1ccc(C(N)=O)cc1` [4-cyanobenzamide] displayed a melting point of 227 °C.
`O=C(O)Cc1cccc(I)c1` [3-iodophenylacetic acid] came in with a melting point of 130 °C.
In the case of `COc1ccc(CCCC(=O)O)cc1` [4-(4-methoxyphenyl)butanoic acid], the melting point came to 59 °C.
The result for `CN(C)NC(=O)CCC(=O)O` [4-(2,2-Dimethylhydrazino)-4-oxobutanoic acid] reads 154 °C.
Regarding `CN(C)c1ccncc1` [4-(dimethylamino)pyridine], the melting point came out at 112 °C.
In the case of `C=C(C)[C@H]1Cc2c(ccc3c2O[C@@H]2COc4cc(OC)c(OC)cc4[C@@H]2C3=O)O1`, the melting point is 166 °C.
The result for `CC(C)I` [2-Iodopropane] reads -90 °C.
The result for `Nc1ccc(O)c(C(=O)O)c1` [5-aminosalicylic acid] reads 280 °C.
The molecule `CCC(C)C` [Isopentane] came in with a melting point of -160 °C.
As for `C=C[C@H]1C[N@@]2CC[C@H]1C[C@H]2[C@H](O)c1ccnc2ccccc12` [cinchonidine], the melting point turned out to be 204 °C.
Molecule `O=C(O)c1cccnc1Oc1ccc(F)cc1` [2-(4-fluorophenoxy)nicotinic acid] displayed a melting point of 184 °C.
Regarding `O=C(O)CCCC[C@@H]1CCSS1` [5-[(3R)-1,2-Dithiolan-3-yl]pentanoic acid], the melting point amounted to 60 °C.
For `Nc1ccc(C(=O)O)cc1` [4-Aminobenzoic Acid], the melting point worked out at 188 °C.
Turning to `O=C(O)c1ccccc1N=Nc1ccc(O)cc1` [2-(p-hydroxyphenylazo)benzoic acid], the melting point was 206 °C.
Consider `c1ccc2c(c1)ccc1c3ccccc3ccc21` [Chrysene], for which the melting point was determined as 255 °C.
The result for `C/C=C/c1ccc(O)c(OC)c1` [isoeugenol, cis trans] reads -10 °C; that for `CP(=O)(O)CC[C@@H](N)C(=O)O` [2-Amino-4-(Hydroxymethyl-Phosphinyl)Butanoic Acid], 230 °C.
To `CCCCCC1CCCCC1` [N-pentylcyclohexane] belongs -58 °C; to `CCCCCCP(=O)(O)O` [N-hexylphosphonic acid], 109 °C.
Molecule `C=CCC1(C(C)C)C(=O)NC(=O)NC1=O` [aprobarbital] showed a melting point of 143 °C.
As to `CCCCOC(=O)[C@@H](C)Oc1ccc(Oc2ccc(C(F)(F)F)cn2)cc1`, the melting point stood at 5 °C.
The molecule `CCSC(SCC)C(OC(C)=O)C(OC(C)=O)C(OC(C)=O)C(COC(C)=O)OC(C)=O` (stereo not given) yielded a melting point of 112 °C.
For the molecule `CCCc1c(O)cccc1O` [2-n-propylresorcinol], the melting point turned out to be 103 °C.
`ON=C(c1ccccc1)c1ccccn1` [phenyl 2-pyridyl ketoxime] came in with a melting point of 155 °C.
For `CC(C)C(C)(C)C(C)(C)C` [2,2,3,3,4-pentamethylpentane], the melting point is -36 °C.
In the case of `c1ccc(CCc2ccccc2)cc1` [1,2-diphenylethane], the melting point is 51.5 °C and 52 °C.
To `CCc1c(C)[nH]c2c1C(=O)C(CN1CCOCC1)CC2` (stereo not given) [molindone] belongs 180 °C; to `CCCC` [butane], -138 °C and -137 °C.
Consider `CCCCCOC(C)=O` [N-pentyl acetate], for which the melting point is -100 °C.
On to `C/C(OC/C(=N/NC(N)=O)c1ccccc1)=C(\C#N)c1ccccc1`, for which the melting point amounted to 157 °C.
`Clc1c(Cl)c(Cl)c(Cl)c(Cl)c1Cl` [Hexachlorobenzene]: the melting point is 230 °C.
`O=C[C@H](O)[C@H](O)[C@@H](O)CO` [L-lyxose] showed a melting point of 110 °C.
`Nc1ccc(Cl)cc1Cl` [2,4-dichloroaniline] had a melting point of 61 °C.
Molecule `CC(=O)OCCC(C)C` [3-Methylbutyl acetate] showed a melting point of -100 °C.
Molecule `C[C@]12CCC(=O)C=C1CC[C@@H]1[C@@H]2[C@@H](O)C[C@@]2(C)[C@H]1CC[C@]2(O)C(=O)CO` [Hydrocortisone] came in with a melting point of 220 °C.
With `COc1cc(/C=C/C(=O)c2ccccc2O)ccc1O`, the melting point is 129 °C (2×) and 128 °C.
To `Nc1c(Br)cc(Br)c2c1C(=O)c1ccccc1C2=O` [1-Amino-2,4-dibromo-9,10-anthraquinone] belongs 226 °C; to `N#CCC(=O)c1ccco1` [2-furoylacetonitrile], 79 °C; to `NC(=O)c1cccnc1` [nicotinamide], 130 °C.
In the case of `C[C@]12C=CC(=O)C=C1CC[C@@H]1[C@@H]2C(=O)C[C@@]2(C)[C@H]1CC[C@]2(O)C(=O)CO` [Prednisone], the melting point was 234 °C.
As for `COc1ccc(C=Nc2ccccc2)cc1` [N-(4-methoxybenzylidene)aniline], the melting point was 65 °C and 62.3 °C and 63 °C.
As to `CCN=C=S` [ethyl isothiocyanate], the melting point was -6 °C.
Molecule `O=C1CCC(=O)O1` [succinic anhydride] showed a melting point of 120 °C.
With `CCOC(C)=O` [Ethyl acetate], the melting point was -84 °C.
The result for `CCCOC(C)=O` [N-propyl acetate] reads -92 °C; that for `O=C(O)Cc1ccccc1O` [2-Hydroxyphenylacetic acid], 149 °C.
The molecule `CCC(=O)c1ccc(OCc2ccccc2)cc1` [4'-benzyloxypropiophenone] had a melting point of 100 °C.
Turning to `CCCCCCCC(C)CC` (stereo not given) [3-methyldecane], the melting point was -76 °C.
Consider `O=C(O)c1ccc(Br)c(C(=O)O)c1` [4-bromoisophthalic acid], for which the melting point is 299 °C.
`Cc1cc(C)c(C)cc1C` [1,2,4,5-tetramethylbenzene] returned a melting point of 79 °C.
`CCCCCCCCCCCCCCCCCC` [N-octadecane] registered a melting point of 28 °C.
The molecule `CC(=O)O` [acetic_acid] displayed a melting point of 17 °C.
`C=Cc1ccccc1` [styrene]: the melting point was -31 °C.
For `CCCCCCCCCC` [N-decane], the melting point was -30 °C.
The molecule `CC(=O)N[C@@H](Cc1ccccc1)C(=O)O` [N-acetyl-l-phenylalanine] had a melting point of 168 °C.
Turning to `O=C(OC(=O)/C(=C/c1ccccc1)Cc1ccccc1)/C(=C/c1ccccc1)Cc1ccccc1` [(2E)-2-benzyl-3-phenylprop-2-enoic anhydride], the melting point stood at 108 °C.
In turn, `CCCc1ccccc1` [N-propylbenzene] gave a melting point of -100 °C.
Take `COC=O` [Methyl formate]: the melting point was -100 °C.
